Test results from patent publication US10272055B2, “Therapeutic compounds and methods” (Regents of the University of Minnesota, priority 2014, dated 2019).
pIC50: −log10 of the molar value. Where “and” joins values, the source holds several entries; their conditions need not be identical. Equal entries are not always repeated. Entries after “also recorded” stand apart in the source; their conditions may differ.

Experiments:
CYP3A4 epoxygenase = CYP3A4 epoxygenase (Homo sapiens, UniProt P08684); assay: CYP3A4 Supersome epoxygenase assay: EET synthesis from arachidonic acid, LC-ESI-MS/MS
CYP3A4 epoxygenase, sequence (P08684 whole entry): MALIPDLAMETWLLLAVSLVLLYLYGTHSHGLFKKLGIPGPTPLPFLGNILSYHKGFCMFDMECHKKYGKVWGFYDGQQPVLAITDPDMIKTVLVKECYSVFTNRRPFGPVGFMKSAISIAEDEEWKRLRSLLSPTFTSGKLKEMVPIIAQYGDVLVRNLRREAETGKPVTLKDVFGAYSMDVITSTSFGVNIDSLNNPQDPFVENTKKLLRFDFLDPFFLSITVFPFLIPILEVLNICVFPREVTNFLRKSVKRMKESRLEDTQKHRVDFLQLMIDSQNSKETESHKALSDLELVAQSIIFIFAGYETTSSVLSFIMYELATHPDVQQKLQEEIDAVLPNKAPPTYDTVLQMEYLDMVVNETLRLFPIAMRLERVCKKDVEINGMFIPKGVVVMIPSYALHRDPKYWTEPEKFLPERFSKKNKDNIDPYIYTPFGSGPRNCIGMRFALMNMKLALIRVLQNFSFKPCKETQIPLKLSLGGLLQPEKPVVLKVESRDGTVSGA
Method: Measurements are reported as percentage of control reactions performed with vehicle but no compound. A ^13C-EET recovery standard was used to control for recovery of EETs from extractions. […] EET measurements in these Supersome experiments are expressed as percentage of control reactions. Absolute EET measurements are determined by subtraction of regioisomer values in a baseline reaction lacking NADPH. Measurements were performed in triplicate and values are expressed as the mean±SD.
After the reaction, EETs were then extracted with 1 mL dichloromethane and reconstituted in methanol and analyzed by LC-ESI-MS/MS.

CYP3A4 nanodiscs = CYP3A4 nanodiscs (Homo sapiens, UniProt P08684); assay: CYP3A4 nanodisc spin shift titration; type: binding; settings: vs metformin
CYP3A4 nanodiscs, sequence (P08684 whole entry): as above

STAT3 = STAT3 phosphorylation Western blot in MCF7; type: cell-based
Method: Western blotting analysis was performed (C=control, M=metform and H=HBB).
Total protein was extracted and analyzed by Western-blotting with GAPDH as an internal control.

MCF-7 xenograft = MCF-7 xenograft in nude mice; type: in vivo; settings: HBB 4 mg/kg ip daily vs PBS/vehicle
Method: FIG. 3A. MCF-7 xenograft with 3×10^6 cells in the 2nd mammary fat pad on day 0. HBB (4 mg/kg ip daily) (ν) or PBS (ρ) treatment began on day 1. * indicates P<0.05. FIG. 3B. MDAMB-231 xenograft with 1×10^6 cells in the 2nd mammary fat pad on day 0. HBB (4 mg/kg ip daily) (ν) or PBS (ρ) treatment began on day 1. N=20 mice per arm for each study; error bars are SEM.
MCF-7 cells were implanted in the mammary fat pad of 4-5 week mice and treatment was initiated when tumor size was ≥15 mm^3 by 2 sequential measurements with randomized assignment to the treatment arms.
FIG. 44A. Nude mice were inoculated with 3×10^6 MCF-7 cells and treated with vehicle (Δ) HBB at the MTD (4 mg/kg/day ip) (▪). (* indicates P<0.05). Error bars are SEM. […] The dose limiting toxicity was weight loss. At the MTD there was a well-tolerated 4% reduction of weight at 42 days (P<0.0001; data not shown). FIG. 44B. Nude mice were inoculated with 1×10^6MDA-MB-231 cells and treated with HBB at the MTD (4 mg/kg/day ip).

[1] = Tolerability in xenograft mice (MTD, weight); settings: mouse, in vivo
Excerpt: […]. (* indicates P<0.05). Error bars are SEM. […] The dose limiting toxicity was weight loss. At the MTD there was a well-tolerated 4% reduction of weight at 42 days (P<0.0001; data not shown). […].

[2] = HBB concentration after ip administration, MCF-7 model; set-up: species or system mice; settings: nude, mouse, in vivo, intraperitoneal, 4 mg/kg/day ip, read-out: Concentration of HBB 1 hour following ip administration
Method: Concentration of HBB 1 hour following ip administration was 0.527 uM as measured in the MCF-7 model. HBB was administered ip at 4 mg/kg/day in both models, which is the MTD for that dose, route and schedule.

MCF7 = assay: ROS production, DCFDA flow cytometry, MCF7; type: cell-based; settings: MCF7, 20 uM HBB
Method: (§1) FIG. 33 illustrates that HBB induces reactive oxygen species (ROS) production in MCF7 and MDA-MB-231 lines. Cells in log phase growth in complete media were trypsinized and resuspended in complete media containing 20 uM DCFDA. After incubation at 37° C. for 30 minutes, cells were treated with 20 uM HBB or DMSO for 2.5 hours and analyzed by flow cytometer, monitoring fluorescence at 525 nm. Results are represented as histograms of cell count vs fluorescence intensity.

MDA-MB-231 = assay: ROS production, DCFDA flow cytometry, MDA-MB-231; type: cell-based; settings: MDA-MB-231, 20 uM HBB
Method: as §1

CD31 = assay: Angiogenesis by CD31 staining, MCF-7 xenograft tumors; type: in vivo, mice; settings: MCF-7 model, HBB 4 mg/kg/day ip vs PBS
Method: Xenogaft tumors from the MCF-7 and MDA-MB-231 models were tested for inhibition of angiogenesis by HBB using CD31 staining.
The samples were cryosectioned at 6 um and fixed with chilled 100% acetone for 10 minutes. Samples were blocked with 3% donkey serum in PBS for 30 minutes at 37 C.
The antibody used to stain CD-31 was from BD Pharmingen PE Rat anti Mouse CD31, catalog number 553373. It was used at a dilution of 1:50 in blocking buffer for 1 hour at 37 C.
The samples were then stained for 10 minutes with DAPI at a concentration of 1:2000, from Life Technologies, catalog number D1306.
Each sample was imaged in 4-5 areas. There were 3 samples per condition, PBS vs HBB.

[3] = test system: breast cancer cells and primary cells; assay: OCR and ECAR, XF Extracellular Flux Analyzer; type: cell-based; settings: HBB 20 uM or 40 uM vs DMSO
Method: Measuring glycolysis and oxidative metabolism. Cells were maintained in growth medium consisting of 10% FBS, at 37° C. with 5% CO2 and seeded at 100,000 cells per well in XF24-well cell culture microplates (for primary cells HUVEC and HDMVEC, plates were pre-coated with 0.2% college before seeding). Concentrated stocks of HBB was prepared in DMSO. HBB was diluted to 10× working concentration in XF assay medium (a non-buffered medium including 2 mM of L-glutamine but no sodium bicarbonate (buffering agent), glucose, or sodium pyruvate).
Before analysis, the cells were switched from culture medium to XF assay medium. Following baseline measurements, 75 μl of HBB prepared in assay medium was injected into each well to reach final working concentrations. Following the addition of HBB, OCR and ECAR were measured at fixed time interval.
Cells were maintained in growth medium consisting of 10% FBS, at 37° C. with 5% CO2 and seeded at 100,000 cells per well in XF24-well cell culture microplates (for HUVEC, plates were pre-coated with 0.2% college before seeding). Before analysis, the cells were switched from culture medium to XF assay medium. Following baseline measurements, 75 μl of HBB prepared in assay medium was injected into each well to reach final working concentrations. Following the addition of HBB, OCR and ECAR were measured at fixed interval. […]

## CCCCCCNC(=N)NC(=N)NCc1ccccc1 [HBB, N1-hexyl-N5-benzyl biguanide]
CYP3A4 epoxygenase; IC50, inhibition of CYP3A4 epoxygenase
  pIC50: 3.96
CYP3A4 epoxygenase; vs metformin
  fold more potent than metformin, CYP3A4 epoxygenase: 50 fold and ~40 fold
CYP3A4 nanodiscs
  fold more potent than metformin, CYP3A4 nanodisc spin shift: ~4 fold
STAT3; MCF7, 6 hours, HBB 20 uM, metformin 10 uM
  STAT3 phosphorylation relative to control: decreased phosphorylation of STAT3
STAT3; vs metformin
  fold more potent than metformin, inhibition of Stat3 phosphorylation: ~50 fold
MCF-7 xenograft
  tumor growth, MCF-7 xenograft: significant reduction in early engraftment/tumor growth; also recorded: only in the MCF-7 model; also recorded: inhibits the ER+ MCF-7
[1]
  dose limiting toxicity: weight loss
[1]; nude, ip daily, read-out: maximum tolerated dose (MTD)
  MTD at 42 days: 4 mg/kg
[2]
  concentration at 1 h: 527 nM
MCF7
  ROS production relative to DMSO: induced significant ROS production
MDA-MB-231
  ROS production relative to DMSO: induced significant ROS production
CD31
  angiogenesis (CD31 staining): inhibited angiogenesis in both models
[3]
  extracellular acidification rate (ECAR): inhibits both OCR and ECAR
  oxygen consumption rate (OCR): inhibits oxygen consumption rate (OCR); also recorded: inhibits both OCR and ECAR
